Paper PMC10577379, “Isolation of anticancer bioactive secondary metabolites from the sponge-derived endophytic fungi Penicillium sp. and in-silico computational docking approach” (Frontiers in Microbiology, 2023)
Converted amounts (≈) assume the structure as drawn. “Also recorded” adds a separate entry of the source. Where two headings read alike, the source gives them in different places.

How the values were obtained:
[1] = test system: MCF-10A; assay: Cytotoxicity, Cell Counting Kit (CCK-8), normal cell line; format: cell-based; details: Homo sapiens, CCK-8, n = 3, unit from Table S1 title
Procedure: (§1) Cytotoxicity was assessed using the Cell Counting Kit (CCK-8) (Dojindo, Japan) method adopted by Wang et al. ([2015a]). Cancer cell lines used in this study included K562, MCF-7, A549, HuH-7, H1975, HeLa, HL7702, DU145, HL60, MOLT-4. Additionally, a normal cell line, MCF10A, was included. All cell lines were procured from Shanghai Cell Bank, Chinese Academy of Sciences. Cells were routinely grown and maintained in RPMI or DMEM media with 10% Fetal Bovine Serum and 1% penicillin/streptomycin. Various concentrations of seven isolated compounds from Penicillium sp. were dissolved in 100% DMSO with a maximum concentration of 200 μg/mL and serially diluted to a final 0.1% DMSO concentration to treat cells for […]. Taxol was used as a positive control, and DMSO was used as a negative control. Cytotoxicity screening assay experiments were conducted in triplicate to obtain the standard error ± mean value. The percentage of cytotoxicity (IC50) alongside the selectivity index was then calculated using the formula:
(§2) IC50=(absorbance of the cell without treatment -absorbance of cells with treatment/ absorbance of the cell without treatment)× 100
(§3) Selective index (SI)=CC50value for normal cells/IC50for cancer cells

[2] = test system: cancer cell lines; assay: Anticancer screening, whole cell line panel; format: cell-based; details: in-vitro screening, tested cell lines, in words
Procedure: as §1, §2, §3

[3] = test system: HL60 cells; assay: Cytotoxicity, Cell Counting Kit (CCK-8); format: cell-based, human; details: for IC50: Homo sapiens; for anticancer activity toward HL60 cells: in words
Procedure: as §1, §2, §3

[4] = test system: A549; assay: Cytotoxicity, Cell Counting Kit (CCK-8); format: cell-based; details: Homo sapiens, CCK-8, mean ± SD, n = 3, unit from b62 and Table S1 title (there headed MIC)
Procedure: as §1, §2, §3

[5] = test system: MCF-7; assay: Cytotoxicity, Cell Counting Kit (CCK-8); format: cell-based; details: Homo sapiens, MCF7; CCK-8, mean ± SD, n = 3; unit from b62 and Table S1 title (there headed MIC)
Procedure: as §1, §2, §3

[6] = test system: K562; assay: Cytotoxicity, Cell Counting Kit (CCK-8); format: cell-based; details: Homo sapiens, CCK-8, mean ± SD, n = 3, unit from b62 and Table S1 title (there headed MIC)
Procedure: as §1, §2, §3

[7] = test system: HL7702; assay: Cytotoxicity, Cell Counting Kit (CCK-8); format: cell-based; details: Homo sapiens, L02; CCK-8, mean ± SD, n = 3; unit from b62 and Table S1 title (there headed MIC)
Procedure: as §1, §2, §3

[8] = test system: H1975; assay: Cytotoxicity, Cell Counting Kit (CCK-8); format: cell-based; details: Homo sapiens, NCI-H1975; CCK-8, mean ± SD, n = 3; unit from b62 and Table S1 title (there headed MIC)
Procedure: as §1, §2, §3

[9] = test system: Huh-7; assay: Cytotoxicity, Cell Counting Kit (CCK-8); format: cell-based; details: Homo sapiens, CCK-8, mean ± SD, n = 3, unit from b62 and Table S1 title (there headed MIC)
Procedure: as §1, §2, §3

[10] = test system: DU145; assay: Cytotoxicity, Cell Counting Kit (CCK-8); format: cell-based; details: Homo sapiens, DU-145; CCK-8, mean ± SD, n = 3; unit from b62 and Table S1 title (there headed MIC)
Procedure: as §1, §2, §3

[11] = test system: MOLT-4; assay: Cytotoxicity, Cell Counting Kit (CCK-8); format: cell-based; details: Homo sapiens, CCK-8, mean ± SD, n = 3, unit from b62 and Table S1 title (there headed MIC)
Procedure: as §1, §2, §3

[12] = test system: HeLa; assay: Cytotoxicity, Cell Counting Kit (CCK-8); format: cell-based; details: Homo sapiens, CCK-8, mean ± SD, n = 3, unit from b62 and Table S1 title (there headed MIC)
Procedure: as §1, §2, §3

[13] = test system: K562 cell lines; parameters: method as in Hong et al., 2007; details: averufin from Penicillium flavidorsum SHK1-27; ref Hong et al., 2007; cited from earlier work
[14] = test system: Mycobacterium tuberculosis H37Ra (ATCC 25177); assay: Anti-tuberculosis assay (MIC); format: cell-based; details: M. tuberculosis H37Ra, read-out: Antitubercular activity MIC
Procedure: The H37Ra strain of Mycobacterium tuberculosis (ATCC 25177) purchased from the American Type Culture Collection (ATCC) was used in the anti-TB bioassay. The anti-tuberculosis assay was based on the one used by Wang et al. ([2015b]). INH (Isoniazid) was used as the positive control, and DMSO was used as a negative control. For the minimum inhibitory concentration (MIC) analysis, 100 μl of Mycobacterium suspension was prepared in a 96-well microtiter plate. A total of […] of double serial dilution of various concentrations of 7 isolated compounds (from 0.08 to 20 μg/mL) alongside the positive control isoniazid (1 to 417 μg/mL) was added to the well.

[15] = test system: SGC-7901 cell line; parameters: method as in Yang et al., 2009; details: in words; ref Yang et al., 2009; cited from earlier work
[16] = test system: Staphylococcus aureus (CGMCC 1.230); assay: Antimicrobial assay (MIC); format: cell-based; details: CGMCC1, 37°C, 24 h, read-out: MIC S. aureus
[17] = test system: Escherichia coli (CGMCC 1.2385); assay: Antimicrobial assay (MIC); format: cell-based; details: CGMCC1, 37°C, 24 h
[18] = HL-60, CCK-8, mean ± SD, n = 3, unit from b62 and Table S1 title (there headed MIC), read-out: IC50 HL60

| Compound | IC50 [1] [µM] | IC50 [3, 18] [µM] | IC50 [4] [µM] | IC50 [5] [µM] | IC50 [6] [µM] | IC50 [7] [µM] | IC50 [8] [µM] | IC50 [9] [µM] | IC50 [10] [µM] | IC50 [11] [µM] | IC50 [12] [µM] | MIC [14] [µM] | other results |
| --- | --- | --- | --- | --- | --- | --- | --- | --- | --- | --- | --- | --- | --- |
| CC12CCCC(O1)c1c(cc3c(c1O)C(=O)c1c(O)cc(O)cc1C3=O)O2 (stereo not drawn) [Compound 1, averufin] | ≥ 50 | 1 | 76.1 ± 0.01 | 6.71 ± 0.01 | 17.4 ± 0.01 | 3.57 ± 0.01 | 8.64 ± 0.01 | 3.13 ± 0.01 | 91.2 ± 0.01 | 5.77 ± 0.01 | 8.11 ± 0.01 | > 50 | anticancer effect against cancer cell lines [2]: significant anticancer effect; IC50 ([3]; HL-60, read-out: IC50 concentration, HL60 cell lines): 1 µM; anticancer activity toward HL60 cells [3]: strong anticancer activity; MIC, antitumor activity toward K562 cell lines [13]: 72.4 µM (≈ 26.7 µg/mL) |
| CCCCC[C@@H](c1ccc(Oc2cc(C)cc(O)c2)cc1)c1c(O)cc2c(c1O)C(=O)c1cc(O)cc(O)c1C2=O [Compound 2, aspergilol-A] |  |  |  |  |  |  |  |  |  |  |  | > 50 |  |
| COC(=O)c1cc(O)cc(OC)c1C(=O)c1c(O)cc(C)cc1O [Compound 3, sulochrin] |  |  |  |  |  |  |  |  |  |  |  | > 50 |  |
| COc1cc(O)cc2c1C(=O)c1c(O)cc(C)cc1C2=O [Compound 5, methyl emodin] | ≥ 50 | 13.2 ± 0.01 | 81.3 ± 0.01 | 54.3 ± 0.01 | 16.3 ± 0.01 | 67.2 ± 0.01 | 43.5 ± 0.01 | 25.1 ± 0.01 | 101.4 ± 0.01 | 13.6 ± 0.01 | 24.9 ± 0.01 | > 50 | anticancer effect against cancer cell lines [2]: significant anticancer effect; also recorded: weak anticancer effect; anticancer activity toward HL60 cells [3]: moderate activity; anticancer effect against the SGC-7901 cell line [15]: moderate anticancer effect |
| Cc1cc(O)cc(Oc2cc(C)cc(O)c2)c1 [Compound 7, diorcinol] |  |  |  |  |  |  |  |  |  |  |  | > 50 |  |
| NNC(=O)c1ccncc1 [INH, Isoniazid, reference compound] |  |  |  |  |  |  |  |  |  |  |  | 3.98 (≈ 0.546 µg/mL) |  |
| CC(=O)O[C@H]1C(=O)[C@@]2(C)[C@H]([C@H](OC(=O)c3ccccc3)[C@]3(O)C[C@H](OC(=O)[C@H](O)[C@@H](NC(=O)c4ccccc4)c4ccccc4)C(C)=C1C3(C)C)[C@]1(OC(C)=O)CO[C@@H]1C[C@@H]2O [Taxol, reference compound] | ≥ 50 | 0.002 | 0.024 ± 0.01 | 0.002 | 0.003 | 0.003 | 0.014 ± 0.01 | 0.003 | 0.015 ± 0.01 | 0.003 | 0.003 |  |  |
| O=C(O)c1cn(C2CC2)c2cc(N3CCNCC3)c(F)cc2c1=O [ciprofloxacin, Ciprofloxacin] |  |  |  |  |  |  |  |  |  |  |  |  | MIC [16]: 2.96 µM (≈ 0.981 µg/mL); MIC [17]: 0.19 µM (≈ 0.063 µg/mL) |
